{
  "source": "patent US20230034359A1",
  "about": "“GENERATION OF MATURE KUPFFER CELLS” (AGENCY FOR SCIENCE, TECHNOLOGY AND RESEARCH, priority 2018, published 2023)",
  "key": {"iHeps mono-culture [1]": {"system": "iHeps mono-culture", "assay": "Alamar Blue cell viability, iHeps mono-culture", "format": "cell-based, human", "conditions": "Homo sapiens; iHeps mono-culture", "protocol": "(§1) For co-cultures, NL-Mφ, pKCs or iKCs were seeded at a density of 12,000 to 15,000 cells per well on Collagen I-coated 96-well plates. The cells were seeded in their respective media for 24 hours. Following cell attachment, medium was removed and iHeps or pHeps were seeded at a density of 2.5 times the density of the NL-Mφ/pKCs/iKCs in William's E media containing supplemental cocktail B. In some experiments, Advanced DMEM with supplement cocktail B (Media A) was used. The matching hepatocyte mono-culture controls were seeded in the same media and at the same density as the co-cultures.\n(§2) Cell viability of differentiated hepatocytes was measured 24 hours after treatment with drugs using Alamar Blue® cell viability assay (Life Technologies) according to manufacturer's instructions. The following drugs were used for the cell viability assays: Acetaminophen, Trovafloxacin and Levofloxacin (all drugs from Sigma). Stock solutions of drugs were prepared in DMSO and then diluted in media to obtain desired working concentrations. Controls were treated with solvent alone (in absence of test compounds) and considered as 100% viability value."}, "[2]": {"system": "pHeps in co-culture with NL-Mφ", "format": "cell-based, human", "protocol": "as §1, §2"}, "[3]": {"system": "iHeps in co-culture with iKCs", "assay": "in vitro", "format": "cell-based, human", "protocol": "as §1, §2"}, "pHeps mono-culture": {"system": "pHeps mono-culture", "assay": "Alamar Blue cell viability, pHeps mono-culture", "format": "cell-based, human", "conditions": "Homo sapiens, 24 h", "protocol": "as §1, §2"}, "[4]": {"system": "pHeps in co-culture with pKCs", "assay": "Alamar Blue cell viability, pHeps-pKCs co-culture", "format": "cell-based, human", "conditions": "Homo sapiens, 24 h", "protocol": "as §1, §2"}, "[5]": {"system": "pHeps in co-culture with iKCs", "assay": "Alamar Blue cell viability, pHeps-iKCs co-culture", "format": "cell-based, human", "conditions": "Homo sapiens, 24 h", "protocol": "as §1, §2"}, "iHeps mono-culture [6]": {"system": "iHeps mono-culture", "assay": "Cholestasis model, mono-culture control", "format": "cell-based, human", "conditions": "CPZ treatment", "protocol": "(§3) Cells were incubated with 10 μM Fluorescein diacetate (FDA) and incubated for 30 minutes. The FDA-containing medium was removed and the cells were washed thrice with medium to remove any residual FDA. Images of bile acid accumulation were acquired using Olympus BX-DSU and quantified using Image J software and normalized to untreated control."}, "iHeps-iKCs co-culture [7]": {"system": "iHeps-iKCs co-culture", "assay": "Bile acid accumulation (FDA)", "format": "cell-based, human", "conditions": "100 ng/ml LPS and 10 μM CPZ, 24 hours; versus untreated control", "protocol": "as §3"}, "iHeps-iKCs co-culture [8]": {"system": "iHeps-iKCs co-culture", "assay": "Cytokine production (ELISA) in cholestasis model", "format": "cell-based, human", "conditions": "100 ng/ml LPS and 10 μM CPZ, 24 hours", "protocol": "(§4) Interleukin-6 (IL-6) and Tumor necrosis factor alpha (TNFα) levels in the media were measured using human IL-6 and TNFα enzyme-linked immunosorbent assay (ELISA) kits (Abcam) according to manufacturer's instructions.\nas §3"}, "[9]": {"system": "BSEP, MDR1 and MRP1 mRNA in iHeps-iKCs co-culture", "assay": "qPCR of bile transporter genes in cholestasis model", "format": "cell-based, human", "conditions": "CPZ treatment", "protocol": "RNA was isolated using RNeasy Micro-kit (Qiagen, Hilden, Germany), RNA amount was determined using a NanoDrop™ ND-1000 Spectrophotometer (Life Technologies) and RNA was converted to cDNA using iScript cDNA synthesis kit (Bio-Rad Laboratories, Hercules, Calif., USA). 7000 Fast Real-Time PCR System (Applied Biosystems, Foster City, Calif., USA) was used for qPCR using primers commercially obtained from GeneCopoeia, Inc.\n(Rockville, Md., USA). The expression levels of all marker genes were normalized to that of glyceraldehyde-3-phosphate dehydrogenase (GAPDH).\nas §3"}, "[10]": {"assay": "Alamar Blue cell viability, iHeps mono-culture", "format": "cell-based, human", "conditions": "human, iHeps mono-culture (stem-cell derived)", "protocol": "as §1, §2"}, "in vitro": {"assay": "in vitro", "format": "cell-based, human", "conditions": "human", "protocol": "as §1, §2"}, "[11]": {"assay": "Alamar Blue cell viability, pHeps mono-culture", "format": "cell-based, human", "conditions": "human, pHeps mono-culture", "protocol": "as §1, §2"}, "[12]": {"assay": "Alamar Blue cell viability, pHeps-pKCs co-culture", "format": "cell-based, human", "conditions": "human, pHeps in co-culture with pKCs", "protocol": "as §1, §2"}, "[13]": {"assay": "Alamar Blue cell viability, pHeps-iKCs co-culture", "format": "cell-based, human", "conditions": "human, pHeps in co-culture with iKCs; 100 μM, pHeps-iKCs co-culture", "protocol": "as §1, §2"}, "KCs": {"system": "KCs", "conditions": "reference [46], cited from earlier work"}, "iKCs": {"system": "iKCs", "assay": "LPS-induced cytokine production (ELISA) in iKCs", "format": "cell-based, human", "parameters": "TNFα production upon LPS stimulation: unit not given here", "protocol": "as §4"}, "pHeps": {"system": "pHeps", "assay": "LPS-induced cytokine production (ELISA) in pHeps", "format": "cell-based, human", "protocol": "as §4"}, "pKCs": {"system": "pKCs", "assay": "LPS-induced cytokine production (ELISA) in pKCs", "format": "cell-based, human", "protocol": "as §4"}, "NL-Mφ": {"system": "NL-Mφ", "assay": "LPS-induced cytokine production (ELISA) in NL-Mφ", "format": "cell-based, human", "protocol": "as §4"}, "[14]": {"conditions": "100 ng/ml LPS for 16 hours, versus no LPS"}},
  "data": [
    {"compound": "CC(=O)Nc1ccc(O)cc1", "note": "[APAP, Acetaminophen]", "values": [
      {"measurement": "IC50", "setting": "iHeps mono-culture [1]", "value": 54, "unit": "mM"},
      {"measurement": "cell death, co-culture versus pHeps mono-culture", "setting": "[2]", "value": "No difference in cell death"},
      {"measurement": "cell viability, donor-matched co-culture versus mono-culture", "setting": "[3]", "value": "no significant difference"},
      {"measurement": "IC50", "setting": "[3]; Homo sapiens, read-out: IC50 (cell viability)", "value": 27, "unit": "mM"},
      {"measurement": "IC50", "setting": "pHeps mono-culture", "value": 45, "unit": "mM"},
      {"measurement": "IC50", "setting": "[4]", "value": 12.5, "unit": "mM"},
      {"measurement": "IC50", "setting": "[5]", "value": 25, "unit": "mM"}
    ]},
    {"compound": "CN(C)CCCN1c2ccccc2Sc2ccc(Cl)cc21", "note": "[CPZ, Chlorpromazine]", "values": [
      {"measurement": "bile acid accumulation, cytokine production and reduction in transporter gene expression", "setting": "iHeps mono-culture [6]", "value": "not in mono-culture"},
      {"measurement": "bile acid accumulation", "setting": "iHeps-iKCs co-culture [7]", "value": "Significant bile acid accumulation"},
      {"measurement": "IL-6 production, fold compared to untreated control", "setting": "iHeps-iKCs co-culture [8]", "value": 4.5, "unit": "fold"},
      {"measurement": "TNFα production, fold compared to untreated control", "setting": "iHeps-iKCs co-culture [8]", "value": 6.5, "unit": "fold"},
      {"measurement": "mRNA expression of bile salt export pump (BSEP), fold change to untreated control", "setting": "[9]", "value": "0.3±0.1", "unit": "folds"},
      {"measurement": "mRNA expression of multidrug resistance (MDR1), fold change to untreated control", "setting": "[9]", "value": "0.4±0.2", "unit": "folds"},
      {"measurement": "mRNA expression of multidrug resistance-associated protein 1 (MRP1), fold change to untreated control", "setting": "[9]", "value": "0.5±0.2", "unit": "folds"}
    ]},
    {"compound": "C[C@H]1COc2c(N3CCN(C)CC3)c(F)cc3c(=O)c(C(=O)O)cn1c23", "note": "[Levofloxacin]", "values": [
      {"measurement": "viability at 24 h", "setting": "[10]", "value": "> 90", "unit": "%"},
      {"measurement": "viability at 24 h", "setting": "in vitro", "value": "> 90", "unit": "%"},
      {"measurement": "viability at 24 h", "setting": "[11]", "value": "> 90", "unit": "%"},
      {"measurement": "viability at 24 h", "setting": "[12]", "value": "> 90", "unit": "%"}
    ]},
    {"compound": "N[C@@H]1[C@H]2CN(c3nc4c(cc3F)c(=O)c(C(=O)O)cn4-c3ccc(F)cc3F)C[C@@H]12", "note": "[Trovafloxacin]", "values": [
      {"measurement": "cell viability, co-culture versus mono-culture", "setting": "[2]", "value": "No difference in cell viability"},
      {"measurement": "viability at 24 h, 100 µM", "setting": "[11]; 100 μM", "value": 73.8, "unit": "%"},
      {"measurement": "viability at 24 h, 100 µM", "setting": "[12]; 100 μM, pHeps-pKCs co-culture", "value": 53.8, "unit": "%"},
      {"measurement": "viability at 24 h, 100 µM", "setting": "[13]", "value": 55.8, "unit": "%"}
    ]},
    {"compound": "lipopolysaccharide [LPS]", "values": [
      {"measurement": "TNFα production upon LPS stimulation", "setting": "KCs; KCs", "value": 4000, "unit": "pg/mL"},
      {"measurement": "IL-6 production upon LPS stimulation", "setting": "KCs", "value": 800, "unit": "pg/mL"},
      {"measurement": "IL-6 production upon LPS stimulation", "setting": "iKCs", "value": 5200, "unit": "pg/mL"},
      {"measurement": "TNFα production upon LPS stimulation", "setting": "iKCs", "value": "10,000"},
      {"measurement": "IL-6 level, LPS-treated", "setting": "iKCs; 100 ng/ml LPS for 16 hours", "value": 5260, "unit": "pg/million cells/24 h"},
      {"measurement": "fold increase in IL-6 production", "setting": "iKCs; [14]", "value": 35, "unit": "fold"},
      {"measurement": "fold increase in TNFα production", "setting": "iKCs; [14]", "value": 33, "unit": "folds"},
      {"measurement": "TNFα production upon LPS activation", "setting": "pHeps", "value": "below detectable levels"},
      {"measurement": "IL-6 production upon LPS stimulation", "setting": "pKCs", "value": 2018, "unit": "pg/mL"},
      {"measurement": "IL-6 level, LPS-treated", "setting": "pKCs; 100 ng/ml LPS for 16 hours", "value": 3420, "unit": "pg/million cells/24 h"},
      {"measurement": "fold increase in IL-6 production", "setting": "pKCs; [14]", "value": 25, "unit": "folds"},
      {"measurement": "fold increase in TNFα production", "setting": "pKCs; [14]", "value": 35, "unit": "folds"},
      {"measurement": "fold increase in IL-6 production", "setting": "NL-Mφ; [14]", "value": 103, "unit": "folds"},
      {"measurement": "fold increase in TNFα production", "setting": "NL-Mφ; 100 ng/ml LPS, level without LPS not detectable", "value": "> 1000", "unit": "folds"}
    ]}
  ]
}
